This is an account of results in US10196390B2, “TYK2 inhibitors and uses thereof” (Nimbus Lakshmi, Inc., priority 2014, dated 2019).

The subject of one test is JAK2-pSTAT5. Briefly: GM-CSF induced pSTAT5 in human PBMC. The format is cell-based. The settings on record: read-out: JAK2-pSTAT5 EC50. The protocol: Human PBMC are isolated from buffy coat and are stored frozen for assays as needed. […] 15 μl of compound or DMSO is added to the well at the desired concentrations and incubated at 1 hr at 37 C. 15 μl of stimulus (final concentration of 1.7 ng/mL IL-12) is added for 30 minutes prior to pSTAT4 and total STAT4 analysis using cell lysates prepared and analyzed by MSD reagents as per manufacturer protocol. The final DMSO concentration of compound in the assay is 0.1%.
Cells are prepared for analysis as in the above procedure and 15 μl of GM-CSF (final concentration 5 ng/mL) is added for 20 minutes prior to pSTAT5 and total STAT5 analysis using cell lysates prepared and analyzed by MSD reagents as per manufacturer protocol. The final DMSO concentration of compound in the assay is 0.1%.

For another test, the target named is TYK2 (Homo sapiens (Human), UniProt P29597). Nature of the test: Tyk2 activity inhibition assay (radioactive kinase assay / Caliper assay). The format is biochemical. The method, boiled down:
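Radiometric format: TYK2 with peptide substrate (20 μM) and 33P-ATP at 10 μM in HEPES pH 7.5, 1% DMSO, 120 min at room temp, P81 paper capture. Caliper mobility-shift format: TYK2 9.75 nM, peptide 30 at 3 uM, ATP 16 uM (also 1 mM), 25 min at 28° C.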

In the next test the target is JAK2 (Homo sapiens (Human), UniProt O60674). Nature of the test: JAK2 activity inhibition assay (radioactive kinase assay / Caliper assay). The class given is biochemical. The method, boiled down:
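Mobility-shift (Caliper) read-out of phosphorylated peptide substrate. Compound diluted in 25 mM HEPES pH 7.5, 0.01% Brij-35, 0.01% Triton, 0.5 mM EGTA; enzyme added, then peptide plus ATP in 10 mM MgCl2. Incubated 25 min at 28° C, stopped with EDTA buffer.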

The test system of another test is Tyk2-pSTAT4. Nature of the test: IL-12 induced pSTAT4 in human PBMC. The format is cell-based. The settings on record: read-out: Tyk2-pSTAT4 EC50. The protocol: Human PBMC are isolated from buffy coat and are stored frozen for assays as needed. Cells for assay are thawed and resuspended in complete media containing serum, then cells are diluted to 1.67 E6 cells/ml so that 120 μl per well is 200,000 cells. 15 μl of compound or DMSO is added to the well at the desired concentrations and incubated at 1 hr at 37 C. 15 μl of stimulus (final concentration of 1.7 ng/mL IL-12) is added for 30 minutes prior to pSTAT4 and total STAT4 analysis using cell lysates prepared and analyzed by MSD reagents as per manufacturer protocol. The final DMSO concentration of compound in the assay is 0.1%.

The mark [1] stands for this setting: GM-CSF induced pSTAT5, human PBMC.
Where [2] appears, read: IL-12 induced pSTAT4, human PBMC.

Read-outs that look alike come from different tables or passages of the source.

Chain of TYK2 (P29597 whole entry): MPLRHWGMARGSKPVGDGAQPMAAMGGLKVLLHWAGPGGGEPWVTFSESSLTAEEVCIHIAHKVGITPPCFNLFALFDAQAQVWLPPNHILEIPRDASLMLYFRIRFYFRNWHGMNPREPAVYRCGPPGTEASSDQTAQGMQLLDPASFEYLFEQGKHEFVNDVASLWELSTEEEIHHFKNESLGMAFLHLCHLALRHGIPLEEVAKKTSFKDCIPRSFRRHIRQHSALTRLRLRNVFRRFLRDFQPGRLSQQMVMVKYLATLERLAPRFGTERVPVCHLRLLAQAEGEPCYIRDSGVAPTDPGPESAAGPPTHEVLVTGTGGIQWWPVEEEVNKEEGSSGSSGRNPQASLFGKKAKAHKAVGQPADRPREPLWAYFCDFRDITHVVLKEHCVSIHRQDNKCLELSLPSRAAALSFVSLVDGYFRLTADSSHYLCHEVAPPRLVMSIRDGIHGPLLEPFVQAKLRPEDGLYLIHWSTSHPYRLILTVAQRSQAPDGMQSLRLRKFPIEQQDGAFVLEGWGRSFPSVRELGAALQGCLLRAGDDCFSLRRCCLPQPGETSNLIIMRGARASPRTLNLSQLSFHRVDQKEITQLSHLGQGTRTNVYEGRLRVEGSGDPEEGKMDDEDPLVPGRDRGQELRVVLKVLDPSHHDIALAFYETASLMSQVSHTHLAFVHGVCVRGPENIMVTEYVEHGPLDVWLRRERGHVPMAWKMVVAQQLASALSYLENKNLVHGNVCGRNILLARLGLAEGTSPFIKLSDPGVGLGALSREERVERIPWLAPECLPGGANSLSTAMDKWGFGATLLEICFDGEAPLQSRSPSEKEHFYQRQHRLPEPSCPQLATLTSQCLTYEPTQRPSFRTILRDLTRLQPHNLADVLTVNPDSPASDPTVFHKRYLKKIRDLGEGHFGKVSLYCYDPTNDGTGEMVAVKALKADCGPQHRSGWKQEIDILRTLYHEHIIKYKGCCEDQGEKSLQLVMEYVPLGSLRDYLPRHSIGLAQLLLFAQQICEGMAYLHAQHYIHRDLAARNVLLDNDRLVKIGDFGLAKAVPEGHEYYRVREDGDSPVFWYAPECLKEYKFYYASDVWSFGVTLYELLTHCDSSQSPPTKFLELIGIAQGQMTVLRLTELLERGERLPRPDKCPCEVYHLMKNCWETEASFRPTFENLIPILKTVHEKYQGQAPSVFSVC
Chain of JAK2 (O60674 whole entry): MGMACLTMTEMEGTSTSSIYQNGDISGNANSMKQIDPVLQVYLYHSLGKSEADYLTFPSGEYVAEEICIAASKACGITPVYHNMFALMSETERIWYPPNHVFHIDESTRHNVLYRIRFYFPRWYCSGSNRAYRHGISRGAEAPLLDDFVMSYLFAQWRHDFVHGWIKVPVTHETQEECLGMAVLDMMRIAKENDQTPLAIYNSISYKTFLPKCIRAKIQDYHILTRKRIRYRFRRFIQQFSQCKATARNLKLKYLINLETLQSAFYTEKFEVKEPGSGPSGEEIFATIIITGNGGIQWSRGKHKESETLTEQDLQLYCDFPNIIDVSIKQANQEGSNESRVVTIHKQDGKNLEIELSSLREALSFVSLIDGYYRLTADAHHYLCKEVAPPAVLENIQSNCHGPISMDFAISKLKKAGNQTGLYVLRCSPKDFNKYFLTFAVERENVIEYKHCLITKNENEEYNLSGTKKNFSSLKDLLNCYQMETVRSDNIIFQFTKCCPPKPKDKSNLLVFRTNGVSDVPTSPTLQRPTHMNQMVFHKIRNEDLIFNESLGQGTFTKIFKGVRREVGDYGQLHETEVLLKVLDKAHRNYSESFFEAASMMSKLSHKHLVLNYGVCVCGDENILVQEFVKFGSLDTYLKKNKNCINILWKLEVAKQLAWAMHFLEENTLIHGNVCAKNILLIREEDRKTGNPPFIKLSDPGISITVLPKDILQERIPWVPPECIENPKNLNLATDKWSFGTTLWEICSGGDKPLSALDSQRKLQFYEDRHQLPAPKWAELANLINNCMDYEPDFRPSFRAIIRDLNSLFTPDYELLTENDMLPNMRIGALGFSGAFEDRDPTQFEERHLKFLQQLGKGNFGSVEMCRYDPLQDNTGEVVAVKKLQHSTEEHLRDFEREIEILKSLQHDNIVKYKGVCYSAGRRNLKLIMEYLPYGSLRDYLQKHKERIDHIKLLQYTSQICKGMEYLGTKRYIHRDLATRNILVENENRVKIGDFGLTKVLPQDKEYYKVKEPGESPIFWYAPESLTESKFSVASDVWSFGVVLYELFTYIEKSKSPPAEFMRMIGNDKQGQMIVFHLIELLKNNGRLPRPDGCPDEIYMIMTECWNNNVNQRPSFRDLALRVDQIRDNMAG

Turning to `O=C1NCc2nc(-c3c(F)cccc3F)nc(Nc3ccc(CC(=O)N4CCC[C@H]4CO)cc3)c21` [Compound I-16, (S)-2-(2,6-difluorophenyl)-4-((4-(2-(2-(hydroxyl-methyl)pyrrolidin-1-yl)-2-oxoethyl)phenyl)amino)-6,7-dihydro-5H-pyrrolo[3,4-d]pyrimidin-5], the EC50 is over 20 µM with JAK2-pSTAT5 (setting [1]) and under 2 µM in the test on Tyk2-pSTAT4 (setting [2]). The Ki on TYK2 was under 0.01 µM; at JAK2 (read-out: JAK2 Ki), 0.1 to 1 µM.

With `CCNC(=O)Cc1ccc(Nc2nc(-c3ccccc3Cl)nc3c2C(=O)NC3)cc1` [Compound I-20, 2-(4-((2-(2-chlorophenyl)-5-oxo-6,7-dihydro-5H-pyrrolo[3,4-d]pyrimidin-4-yl)amino)phenyl)-N-ethylacetamide], the EC50 in the test with JAK2-pSTAT5 (Homo sapiens, PBMC) is over 20 µM; with Tyk2-pSTAT4 (setting [2]) it was under 2 µM. The Ki was 0.01 to 0.1 µM at TYK2 and 0.1 to 1 µM at JAK2 (read-out: JAK2 Ki).

On to `C[C@H]1COCCN1C(=O)Cc1ccc(Nc2nc(-c3c(F)cccc3F)nc3c2C(=O)NC3)cc1` [Compound I-64, (S)-2-(2,6-difluorophenyl)-4-((4-(2-(3-methylmorpholino)-2-oxoethyl)phenyl)amino)-6,7-dihydro-5H-pyrrolo[3,4-d]pyrimidin-5-one], for which the EC50 is over 20 µM with JAK2-pSTAT5 (setting [1]) and under 2 µM with Tyk2-pSTAT4 (setting [2]). The inhibitory constant (Ki) on TYK2 was under 0.01 µM; on JAK2 (read-out: JAK2 Ki), 0.1 to 1 µM.

On to `O=C(Cc1ccc(Nc2nc(-c3c(F)cccc3F)nc3c2C(=O)NC3)cc1)NC1CCOCC1` [Compound I-65, 2-(4-((2-(2,6-difluorophenyl)-5-oxo-6,7-dihydro-5H-pyrrolo[3,4-d]pyrimidin-4-yl)amino)phenyl)-N-(tetrahydro-2H-pyran-4-yl)acetamide], for which the EC50 in the test with JAK2-pSTAT5 (setting [1]) was over 20 µM; in the test on Tyk2-pSTAT4 (setting [2]), under 2 µM. In addition, the values for the Ki at TYK2 and on JAK2 (read-out: JAK2 Ki) were under 0.01 µM and 0.1 to 1 µM, respectively.

Consider `O=C1NCc2nc(-c3c(F)cccc3F)nc(Nc3ccc(CC(=O)N4CCOCC4)cc3)c21` [Compound I-66, 2-(2,6-difluorophenyl)-4-((4-(2-morpholino-2-oxoethyl)phenyl)amino)-6,7-dihydro-5H-pyrrolo[3,4-d]pyrimidin-5-one], for which the EC50 is over 20 µM in the test on JAK2-pSTAT5 (setting [1]) and under 2 µM in the test with Tyk2-pSTAT4 (setting [2]). The Ki at TYK2 was under 0.01 µM; at JAK2 (read-out: JAK2 Ki), 0.1 to 1 µM.

For `CN1CCN(C(=O)Cc2ccc(Nc3nc(-c4c(F)cccc4F)nc4c3C(=O)NC4)cc2)CC1` [Compound I-67, 2-(2,6-difluorophenyl)-4-((4-(2-(4-methylpiperazin-1-yl)-2-oxoethyl)phenyl)amino)-6,7-dihydro-5H-pyrrolo[3,4-d]pyrimidin-5-one], the EC50 was over 20 µM in the test on JAK2-pSTAT5 (setting [1]) and under 2 µM in the test with Tyk2-pSTAT4 (setting [2]). The inhibition constant Ki at TYK2 was under 0.01 µM; at JAK2 it was 0.01 to 0.1 µM.

Take `O=C1NCc2nc(-c3c(F)cccc3F)nc(Nc3ccc(CC(=O)N4CCN(CC(F)F)CC4)cc3)c21` [Compound I-78, 4-((4-(2-(4-(2,2-difluoroethyl)piperazin-1-yl)-2-oxoethyl)phenyl)amino)-2-(2,6-difluorophenyl)-6,7-dihydro-5H-pyrrolo[3,4-d]pyrimidin-5-one]: the concentration for a half-maximal effect (EC50) was over 20 µM with JAK2-pSTAT5 (Homo sapiens, PBMC) and under 2 µM in the test on Tyk2-pSTAT4 (Homo sapiens, PBMC). In addition, the Ki was under 0.01 µM at TYK2 and 0.01 to 0.1 µM on JAK2.

For the compound `O=C1NCc2nc(-c3c(F)cccc3F)nc(Nc3ccc([C@H]4CCNC4=O)cc3)c21` [Compound I-86, (R)-2-(2,6-difluorophenyl)-4-((4-(2-oxopyrrolidin-3-yl)phenyl)amino)-6,7-dihydro-5H-pyrrolo[3,4-d]pyrimidin-5-one], the EC50 in the test with JAK2-pSTAT5 (setting [1]) was over 20 µM; in the test on Tyk2-pSTAT4 (setting [2]), under 2 µM. The inhibition constant (Ki) was under 0.01 µM on TYK2 and 0.01 to 0.1 µM on JAK2 (read-out: JAK2 Ki).

In the case of `O=C1NCc2nc(-c3c(F)cccc3F)nc(Nc3ccc([C@@H]4CCNC4=O)cc3)c21` [Compound I-87, (S)-2-(2,6-difluorophenyl)-4-((4-(2-oxopyrrolidin-3-yl)phenyl)amino)-6,7-dihydro-5H-pyrrolo[3,4-d]pyrimidin-5-], the EC50 in the test with JAK2-pSTAT5 (setting [1]) was over 20 µM; with Tyk2-pSTAT4 (setting [2]), under 2 µM. The Ki was under 0.01 µM at TYK2 and 0.01 to 0.1 µM on JAK2 (read-out: JAK2 Ki).

On to `CCNC(=O)Cc1ccc(Nc2cc(-c3c(F)cccc3F)nc3c2C(=O)NC3)nc1` [Compound I-88, 2-(6-((2-(2,6-difluorophenyl)-5-oxo-6,7-dihydro-5H-pyrrolo[3,4-b]pyridin-4-yl)amino)pyridin-3-yl)-N-ethylacetamide], for which the EC50 is under 2 µM with JAK2-pSTAT5 (Homo sapiens, PBMC) and under 2 µM in the test on Tyk2-pSTAT4 (Homo sapiens, PBMC). In addition, the Ki lay within 0.01 to 0.1 µM on TYK2 and 0.1 to 1 µM on JAK2 (read-out: JAK2 Ki).

Regarding `CC(C)(C(=O)O)c1ccc(Nc2nc(-c3c(F)cccc3F)nc3c2C(=O)NC3)cc1` [Compound I-109, 2-(4-((2-(2,6-difluorophenyl)-5-oxo-6,7-dihydro-5H-pyrrolo[3,4-d]pyrimidin-4-yl)amino)phenyl)-2-methylpropanoic Acid], the EC50 was over 20 µM in the test with JAK2-pSTAT5 (setting [1]) and 2 to 20 µM with Tyk2-pSTAT4 (Homo sapiens, PBMC). Besides, the Ki on TYK2 is under 0.01 µM; at JAK2 (read-out: JAK2 Ki) it was 0.1 to 1 µM.

For `COc1ccc(Nc2nc(-c3c(F)cccc3F)nc3c2C(=O)NC3)cc1` [Compound I-110, 2-(2,6-difluorophenyl)-4-((4-methoxyphenyl)amino)-6,7-dihydro-5H-pyrrolo[3,4-d]pyrimidin-5-one], the EC50 is over 20 µM with JAK2-pSTAT5 (Homo sapiens, PBMC) and under 2 µM in the test on Tyk2-pSTAT4 (Homo sapiens, PBMC). Moreover, the Ki at TYK2 is under 0.01 µM; at JAK2 (read-out: JAK2 Ki) it was over 1 µM.

In the case of `O=C1NCc2nc(-c3c(F)cccc3Cl)nc(Nc3ccc([C@H]4CCNC4=O)cc3)c21` [Compound I-114, (R)-2-(2-chloro-6-fluorophenyl)-4-((4-(2-oxopyrrolidin-3-yl)phenyl)amino)-6,7-dihydro-5H-pyrrolo[3,4-d]pyrimidin-5-one], the figures for the EC50 in the test on JAK2-pSTAT5 (setting [1]) and in the test on Tyk2-pSTAT4 (setting [2]) were 2 to 20 µM and under 2 µM, respectively. In addition, the Ki at TYK2 was under 0.01 µM; at JAK2 (read-out: JAK2 Ki), 0.1 to 1 µM.

Regarding `O=C1NCc2nc(-c3c(F)cccc3Cl)nc(Nc3ccc([C@@H]4CCNC4=O)cc3)c21` [Compound I-115, (S)-2-(2-chloro-6-fluorophenyl)-4-((4-(2-oxopyrrolidin-3-yl)phenyl)amino)-6,7-dihydro-5H-pyrrolo[3,4-d]pyrimidin-5-one], the results for the EC50 with JAK2-pSTAT5 (setting [1]) and in the test on Tyk2-pSTAT4 (setting [2]) were 2 to 20 µM and under 2 µM, respectively. Further, the Ki at TYK2 lay within 0.01 to 0.1 µM; on JAK2 (read-out: JAK2 Ki), 0.1 to 1 µM.

For `O=C1NCc2nc(-c3c(F)cccc3F)nc(Nc3ccc(C4CCN(C5CCC5)C4=O)cc3)c21` (stereo not drawn) [Compound I-117, 4-((4-(1-cyclobutyl-2-oxopyrrolidin-3-yl)phenyl)amino)-2-(2,6-difluorophenyl)-6,7-dihydro-5H-pyrrolo[3,4-d]pyrimidin-5-one], the concentration giving a half-maximal response (EC50) is over 20 µM with JAK2-pSTAT5 (Homo sapiens, PBMC) and under 2 µM in the test with Tyk2-pSTAT4 (Homo sapiens, PBMC). The Ki on TYK2 was under 0.01 µM; on JAK2 (read-out: JAK2 Ki), 0.1 to 1 µM.

In the case of `O=C1NCc2nc(-c3c(F)cccc3F)nc(Nc3ccc(Cn4ccnn4)cc3)c21` [Compound I-128, 4-((4-((1H-1,2,3-triazol-1-yl)methyl)phenyl)amino)-2-(2,6-difluorophenyl)-6,7-dihydro-5H-pyrrolo[3,4-d]pyrimidin-5-one], the EC50 with JAK2-pSTAT5 (Homo sapiens, PBMC) was over 20 µM; with Tyk2-pSTAT4 (Homo sapiens, PBMC), under 2 µM. Also, the Ki is under 0.01 µM at TYK2 and 0.1 to 1 µM at JAK2 (read-out: JAK2 Ki).

`O=C1NCc2nc(-c3c(F)cccc3F)cc(Nc3ccc(NCCN4CCC(F)(F)CC4)cn3)c21` [Compound I-135, 2-(2,6-difluorophenyl)-4-((5-((2-(4,4-difluoropiperidin-1-yl)ethyl)amino)pyridin-2-yl)amino)-6,7-dihydro-5H-pyrrolo[3,4-b]pyridin-5-one]: the concentration giving a half-maximal response (EC50) in the test on JAK2-pSTAT5 (setting [1]) and with Tyk2-pSTAT4 (setting [2]) was under 2 µM each time. The Ki on TYK2 was under 0.01 µM; at JAK2 (read-out: JAK2 Ki), 0.01 to 0.1 µM.

For `CC1(O)CCN(c2ccc(Nc3cc(-c4c(F)cccc4F)nc4c3C(=O)NC4)nc2)CC1` [Compound I-137, 2-(2,6-difluorophenyl)-4-((5-(4-hydroxy-4-methylpiperidin-1-yl)pyridin-2-yl)amino)-6,7-dihydro-5H-pyrrolo[3,4-b]pyridin-5-one], the EC50 in the test with JAK2-pSTAT5 (setting [1]) and with Tyk2-pSTAT4 (setting [2]) was under 2 µM each time. The Ki was under 0.01 µM on TYK2 and 0.01 to 0.1 µM on JAK2 (read-out: JAK2 Ki).

As a reminder, the EC50 is the concentration giving half of the maximal effect. In general, Ki refers to the dissociation constant of the complex between target and ligand, obtained from inhibition or displacement.
